From the supplement of paper PMC10307832

Columns and labels:
Experiment in all cases: relative viability (nuclei count vs DMSO), 5 days (fraction); higher = more cells survive
BI-2536 + Luminespib = compound: CC[C@@H]1C(=O)N(C)c2cnc(Nc3ccc(C(=O)NC4CCN(C)CC4)cc3OC)nc2N1C1CCCC1 [BI-2536] + CCNC(=O)c1noc(-c2cc(C(C)C)c(O)cc2O)c1-c1ccc(CN2CCOCC2)cc1 [Luminespib] (partner 0.01 µM)
Outline: (§1)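 Lung cancer cell lines were seeded in 1536-well plates and dosed by pin tool the next day, with either a single drug or a fixed anchor-drug dose combined with five library-drug doses (not always all listed) spaced in √10 steps. Five days later, one step fixed the cells and stained their nuclei (final 0.05% Triton X-100, 1% formaldehyde, 1 ug/ml Hoechst), and nuclei were counted on 4× images. Relative viability is the nuclei count in treated wells divided by the count in vehicle wells, and each value is the median of duplicate plates.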

[1] = compound: CC1CC(=O)N(C2=CN=C(N=C2N1C3CCCC3)NC4=C(C=C(C=C4)C(=O)NC5CCN(CC5)C)OC)C [NPK76-II-72-1] + C[C@@H](Oc1cc(-c2cnn(C3CCNCC3)c2)cnc1N)c1c(Cl)ccc(F)c1Cl [Crizotinib] (partner 1 µM)
Outline: as §1

BI-2536 + Dasatinib = compound: CC[C@@H]1C(=O)N(C)c2cnc(Nc3ccc(C(=O)NC4CCN(C)CC4)cc3OC)nc2N1C1CCCC1 [BI-2536] + Cc1nc(Nc2ncc(C(=O)Nc3c(C)cccc3Cl)s2)cc(N2CCN(CCO)CC2)n1 [Dasatinib] (partner 0.075 µM)
Outline: as §1

BI-2536 + Navitoclax = compound: CC[C@@H]1C(=O)N(C)c2cnc(Nc3ccc(C(=O)NC4CCN(C)CC4)cc3OC)nc2N1C1CCCC1 [BI-2536] + CC1(C)CCC(c2ccc(Cl)cc2)=C(CN2CCN(c3ccc(C(=O)NS(=O)(=O)c4ccc(N[C@H](CCN5CCOCC5)CSc5ccccc5)c(S(=O)(=O)C(F)(F)F)c4)cc3)CC2)C1 [Navitoclax] (partner 0.5 µM)
Outline: as §1

| Cell Line | relative viability (BI-2536 + Luminespib; first compound 0.01 µM) | relative viability (BI-2536 + Luminespib; first compound 0.03162 µM) | relative viability (BI-2536 + Luminespib; first compound 0.1 µM) | relative viability (BI-2536 + Luminespib; first compound 0.3162 µM) | relative viability (BI-2536 + Luminespib; first compound 1 µM) | relative viability ([1]; first compound 0.01 µM) | relative viability ([1]; first compound 0.03162 µM) | relative viability ([1]; first compound 0.1 µM) | relative viability ([1]; first compound 0.3162 µM) | relative viability ([1]; first compound 1 µM) | relative viability (BI-2536 + Dasatinib; first compound 0.01 µM) | relative viability (BI-2536 + Dasatinib; first compound 0.03162 µM) | relative viability (BI-2536 + Dasatinib; first compound 0.1 µM) | relative viability (BI-2536 + Dasatinib; first compound 0.3162 µM) | relative viability (BI-2536 + Dasatinib; first compound 1 µM) | relative viability (BI-2536 + Navitoclax; first compound 0.01 µM) | relative viability (BI-2536 + Navitoclax; first compound 0.03162 µM) | relative viability (BI-2536 + Navitoclax; first compound 0.1 µM) | relative viability (BI-2536 + Navitoclax; first compound 0.3162 µM) | relative viability (BI-2536 + Navitoclax; first compound 1 µM) |
| --- | --- | --- | --- | --- | --- | --- | --- | --- | --- | --- | --- | --- | --- | --- | --- | --- | --- | --- | --- | --- |
| LOU-NH91 | 0.372 | 0.345 | 0.306 | 0.279 | 0.267 | 0.735 | 0.735 | 0.693 | 0.635 | 0.764 | 0.599 | 0.539 | 0.52 | 0.289 | 0.256 | 0.673 | 0.53 | 0.648 | 0.316 | 0.261 |
| LU99A | 0.251 | 0.254 | 0.194 | 0.159 | 0.241 | 0.563 | 0.596 | 0.649 | 0.508 | 0.584 | 0.47 | 0.593 | 0.178 | 0.188 | 0.159 | 0.811 | 0.86 | 0.323 | 0.108 | 0.132 |
| LXF-289 | 0.624 | 0.533 | 0.319 | 0.0739 | 0.0875 | 0.829 | 0.84 | 0.823 | 0.801 | 0.828 | 0.274 | 0.235 | 0.0786 | 0.047 | 0.0368 | 0.949 | 0.858 | 0.658 | 0.064 | 0.0512 |
| NCI-H23 | 0.231 | 0.212 | 0.182 | 0.225 | 0.236 | 0.544 | 0.563 |  | 0.556 | 0.528 | 0.803 | 1.02 | 0.285 | 0.126 | 0.107 | 0.894 | 0.632 | 0.567 | 0.192 | 0.127 |
| NCI-H322M | 0.844 | 0.509 | 0.439 | 0.409 | 0.303 | 0.968 | 0.944 | 0.868 | 0.873 | 0.983 | 0.286 | 0.248 | 0.259 | 0.361 | 0.288 | 1.3 | 1.29 | 1.2 | 0.608 | 0.333 |
| NCI-H441 | 0.296 | 0.32 | 0.288 | 0.237 | 0.271 | 0.928 | 0.692 | 0.505 | 0.7 | 0.699 | 0.434 | 0.244 | 0.195 | 0.164 | 0.179 | 0.705 | 0.449 | 0.152 | 0.152 | 0.178 |
| NCI-H460 | 0.0287 | 0.0394 | 0.0295 | 0.0298 | 0.0252 | 0.945 | 1.03 | 1.06 | 0.876 | 0.898 | 0.483 | 0.635 | 0.368 | 0.0145 | 0.0151 | 1.19 | 1.05 | 0.0795 | 0.0095 | 0.0103 |
| NCI-H520 | 0.242 | 0.199 | 0.194 | 0.206 | 0.214 | 0.713 | 0.914 | 0.716 | 0.75 | 0.751 | 0.164 | 0.204 | 0.194 | 0.153 | 0.13 | 1.02 | 1.03 | 0.366 | 0.222 | 0.2 |
| NCI-H596 | 1.02 | 1.12 | 0.986 | 0.37 | 0.29 | 1 | 1.04 | 0.95 | 1.02 | 1.05 | 0.574 | 0.673 | 0.449 | 0.25 | 0.273 | 0.997 | 1.21 | 0.978 | 0.19 | 0.184 |
| NCI-H647 | 0.13 | 0.193 | 0.141 | 0.0872 | 0.116 | 1.06 | 1.15 |  | 0.966 | 1.06 | 0.156 | 0.184 | 0.0428 | 0.0374 | 0.039 | 1.05 | 0.883 | 0.378 | 0.0407 | 0.0778 |
| NCI-H727 | 0.589 | 0.324 | 0.263 | 0.4 | 0.201 | 0.703 | 0.768 | 0.906 | 0.668 | 0.889 | 0.442 | 0.312 | 0.319 | 0.322 | 0.227 | 0.356 | 0.552 | 0.255 | 0.138 | 0.176 |
| NCI-H838 | 0.357 | 0.307 | 0.146 | 0.125 | 0.114 | 0.865 | 0.952 | 0.823 | 0.734 | 0.848 | 0.281 | 0.291 | 0.235 | 0.134 | 0.164 | 1.11 | 1.2 | 0.634 | 0.164 | 0.146 |
| NCI-H1355 | 0.612 | 0.547 | 0.546 | 0.2 | 0.187 | 0.858 | 1.06 | 1.13 | 0.841 | 1.16 | 0.694 | 0.78 | 0.359 | 0.23 | 0.199 | 0.885 | 1.08 | 0.91 | 0.159 | 0.186 |
| NCI-H1437 | 1.14 | 0.961 | 0.729 | 0.2 | 0.164 | 0.843 | 0.956 | 0.834 | 0.746 | 0.967 | 0.318 | 0.365 | 0.247 | 0.173 | 0.108 | 1.08 | 1.08 | 0.714 | 0.145 | 0.142 |
| NCI-H1650 | 0.188 | 0.166 | 0.21 | 0.183 | 0.198 | 1.01 | 1.07 | 0.861 | 0.917 | 1.11 | 0.341 | 0.321 | 0.18 | 0.159 | 0.12 | 1.12 | 1.1 | 0.62 | 0.145 | 0.149 |
| NCI-H1651 | 0.689 | 1.04 | 0.333 | 0.146 | 0.139 | 0.885 | 0.881 | 0.871 | 0.881 | 0.868 | 0.138 | 0.376 | 0.075 | 0.1 | 0.0509 | 1.14 | 1.13 | 0.683 | 0.0829 | 0.055 |
